target: T1, EZH2 (Homo sapiens, UniProt Q15910); assay: EZH2 methyltransferase SPA assay (3H-SAM, Hela nucleosomes); type: biochemical; conditions: not given
T1 construct: GRITS37108
T1 sequence (Q15910 whole entry): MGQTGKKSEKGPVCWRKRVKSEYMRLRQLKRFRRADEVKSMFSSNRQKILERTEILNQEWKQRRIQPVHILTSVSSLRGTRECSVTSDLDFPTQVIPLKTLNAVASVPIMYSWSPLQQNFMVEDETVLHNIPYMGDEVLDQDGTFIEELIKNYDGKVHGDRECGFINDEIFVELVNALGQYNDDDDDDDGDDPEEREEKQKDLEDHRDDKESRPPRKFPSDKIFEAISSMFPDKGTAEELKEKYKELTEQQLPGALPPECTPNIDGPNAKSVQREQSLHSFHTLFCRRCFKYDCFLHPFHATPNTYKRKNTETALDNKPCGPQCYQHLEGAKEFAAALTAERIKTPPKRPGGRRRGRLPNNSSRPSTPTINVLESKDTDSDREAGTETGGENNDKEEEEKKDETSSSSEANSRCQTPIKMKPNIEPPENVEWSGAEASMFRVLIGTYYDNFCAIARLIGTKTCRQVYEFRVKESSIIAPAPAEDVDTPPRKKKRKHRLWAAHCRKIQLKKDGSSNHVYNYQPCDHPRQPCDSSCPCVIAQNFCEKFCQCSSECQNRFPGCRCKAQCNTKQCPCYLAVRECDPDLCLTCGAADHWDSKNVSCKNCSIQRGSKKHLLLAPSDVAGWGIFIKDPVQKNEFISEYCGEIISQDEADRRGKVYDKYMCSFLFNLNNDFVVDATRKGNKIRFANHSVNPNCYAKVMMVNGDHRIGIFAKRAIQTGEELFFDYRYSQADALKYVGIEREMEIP
T1 sequence (O75530 whole entry partner): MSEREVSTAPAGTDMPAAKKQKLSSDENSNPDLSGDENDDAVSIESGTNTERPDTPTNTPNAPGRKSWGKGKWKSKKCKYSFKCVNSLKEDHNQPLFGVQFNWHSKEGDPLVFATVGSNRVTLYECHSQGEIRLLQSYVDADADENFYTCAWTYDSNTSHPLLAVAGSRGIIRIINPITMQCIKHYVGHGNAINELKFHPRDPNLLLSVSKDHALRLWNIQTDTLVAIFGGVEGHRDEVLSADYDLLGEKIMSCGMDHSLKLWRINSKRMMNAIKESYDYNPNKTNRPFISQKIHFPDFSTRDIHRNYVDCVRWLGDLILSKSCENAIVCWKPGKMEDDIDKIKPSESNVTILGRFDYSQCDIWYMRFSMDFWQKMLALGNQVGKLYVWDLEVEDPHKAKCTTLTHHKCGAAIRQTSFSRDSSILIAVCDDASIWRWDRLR
T1 sequence (Q15022 whole entry partner): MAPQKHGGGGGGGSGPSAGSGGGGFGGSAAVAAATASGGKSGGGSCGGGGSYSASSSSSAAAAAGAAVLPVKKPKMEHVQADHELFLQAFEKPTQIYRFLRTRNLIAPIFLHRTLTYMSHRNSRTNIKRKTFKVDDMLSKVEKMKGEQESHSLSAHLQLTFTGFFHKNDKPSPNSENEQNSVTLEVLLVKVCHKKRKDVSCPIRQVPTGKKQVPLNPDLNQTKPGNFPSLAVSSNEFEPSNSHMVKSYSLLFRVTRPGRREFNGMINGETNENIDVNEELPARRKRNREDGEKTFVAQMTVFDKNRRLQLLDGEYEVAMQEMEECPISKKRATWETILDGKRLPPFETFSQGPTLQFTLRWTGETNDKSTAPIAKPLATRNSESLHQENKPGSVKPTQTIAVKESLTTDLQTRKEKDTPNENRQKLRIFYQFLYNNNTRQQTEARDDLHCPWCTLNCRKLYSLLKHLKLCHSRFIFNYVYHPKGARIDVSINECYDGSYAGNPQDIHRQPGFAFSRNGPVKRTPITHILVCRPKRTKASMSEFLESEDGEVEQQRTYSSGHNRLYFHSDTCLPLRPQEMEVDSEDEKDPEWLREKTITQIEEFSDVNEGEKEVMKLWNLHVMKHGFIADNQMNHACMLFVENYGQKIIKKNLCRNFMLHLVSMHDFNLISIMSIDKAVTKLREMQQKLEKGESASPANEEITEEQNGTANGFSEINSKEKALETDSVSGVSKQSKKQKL

Row | IC50 [nM] | Compound
1 | 18 | CCCc1cc(C)[nH]c(=O)c1CNC(=O)c1cc(-c2ccncc2)nc2c1cnn2C(C)C [Ex 11, 1-(1-Methylethyl)-N-[(6-methyl-2-oxo-4-propyl-1,2-dihydro-3-pyridinyl)methyl]-6-(4-pyridinyl)-1H-pyrazolo[3,4-b]pyridine-4-carboxamide]

same assay, conditions: read-out: IC50

Row | IC50 [nM] | Compound
2 | 1300 | CCCc1cc(C)c(CNC(=O)c2cc(C3CC3)nc3c2cnn3C(C)C)c(=O)[nH]1 [Ex 7, 6-Cyclopropyl-1-(1-methylethyl)-N-[(4-methyl-2-oxo-6-propyl-1,2-dihydro-3-pyridinyl)methyl]-1H-pyrazolo[3,4-b]pyridine-4-carboxamide]
3 | 436 | Cc1cc(C)c(CNC(=O)c2cc(NC3CCNCC3)nc3c2cnn3C(C)C)c(=O)[nH]1 [Ex 53, N-[(4,6-Dimethyl-2-oxo-1,2-dihydro-3-pyridinyl)methyl]-1-(1-methylethyl)-6-(4-piperidinylamino)-1H-pyrazolo[3,4-b]pyridine-4-carboxamide]
4 | 119 | Cc1cc(C)c(CNC(=O)c2cc(C3CC3)nc3c2c(C)nn3C2CCCC2)c(=O)[nH]1 [Ex 106, 1-Cyclopentyl-6-cyclopropyl-N-[(4,6-dimethyl-2-oxo-1,2-dihydro-3-pyridinyl)methyl]-3-methyl-1H-pyrazolo[3,4-b]pyridine-4-carboxamide]
5 | 407 | COc1ccc(-c2cc(C(=O)NCc3c(C)cc(C)[nH]c3=O)c3c(C)nn(C(C)(C)C)c3n2)cc1 [Ex 121, 1-(1,1-Dimethylethyl)-N-[(4,6-dimethyl-2-oxo-1,2-dihydro-3-pyridinyl)methyl]-3-methyl-6-[4-(methyloxy)phenyl]-1H-pyrazolo[3,4-b]pyridine-4-carboxamide]
6 | 234 | Cc1cc(C)c(CNC(=O)c2cc(C#CC(C)(C)O)nc3c2cnn3C(C)C)c(=O)[nH]1 [Ex 29, N-[(4,6-Dimethyl-2-oxo-1,2-dihydro-3-pyridinyl)methyl]-6-(3-hydroxy-3-methyl-1-butyn-1-yl)-1-(1-methylethyl)-1H-pyrazolo[3,4-b]pyridine-4-carboxamide]
7 | 43 | Cc1cc(C)c(CNC(=O)c2cc(-c3ccc4c(c3)NC(=O)C4)nc3c2cnn3C(C)C)c(=O)[nH]1 [Ex 78, N-[(4,6-Dimethyl-2-oxo-1,2-dihydro-3-pyridinyl)methyl]-1-(1-methylethyl)-6-(2-oxo-2,3-dihydro-1H-indol-6-yl)-1H-pyrazolo[3,4-b]pyridine-4-carboxamide]
8 | 218 | Cc1cc(C)c(CNC(=O)c2cc(-c3ccccc3)nc3c2c(Br)nn3C(C)C)c(=O)[nH]1 [Ex 123, 3-Bromo-N-[(4,6-dimethyl-2-oxo-1,2-dihydro-3-pyridinyl)methyl]-1-(1-methylethyl)-6-phenyl-1H-pyrazolo[3,4-b]pyridine-4-carboxamide]
9 | 581 | Cc1cc(C)c(CNC(=O)c2cc(-c3ccco3)nc3c2cnn3C(C)C)c(=O)[nH]1 [Ex 62, N-[(4,6-Dimethyl-2-oxo-1,2-dihydro-3-pyridinyl)methyl]-6-(2-furanyl)-1-(1-methylethyl)-1H-pyrazolo[3,4-b]pyridine-4-carboxamide]
10 | 96 | CNC(=O)c1ccc(-c2cc(C(=O)NCc3c(C)cc(C)[nH]c3=O)c3cnn(C(C)C)c3n2)cn1 [Ex 63, N-[(4,6-Dimethyl-2-oxo-1,2-dihydro-3-pyridinyl)methyl]-6-[6-[(methylamino)carbonyl]-3-pyridinyl]-1-(1-methylethyl)-1H-pyrazolo[3,4-b]pyridine-4-carboxamide]
11 | 74 | CC(=O)Nc1ccc(-c2cc(C(=O)NCc3c(C)cc(C)[nH]c3=O)c3cnn(C(C)C)c3n2)cc1 [Ex 44, 6-[4-(acetylamino)phenyl]-N-[(4,6-dimethyl-2-oxo-1,2-dihydro-3-pyridinyl)methyl]-1-(1-methylethyl)-1H-pyrazolo[3,4-b]pyridine-4-carboxamide]
12 | 232 | Cc1cc(C)c(CNC(=O)c2cc(C#Cc3ccccc3)nc3c2cnn3C(C)C)c(=O)[nH]1 [Ex 31, N-[(4,6-Dimethyl-2-oxo-1,2-dihydro-3-pyridinyl)methyl]-1-(1-methylethyl)-6-(phenylethynyl)-1H-pyrazolo[3,4-b]pyridine-4-carboxamide]
13 | 115 | Cc1cc(C)c(CNC(=O)c2cc(-c3ccnc(N)c3)nc3c2cnn3C(C)C)c(=O)[nH]1 [Ex 49, 6-(2-Amino-4-pyridinyl)-N-[(4,6-dimethyl-2-oxo-1,2-dihydro-3-pyridinyl)methyl]-1-(1-methylethyl)-1H-pyrazolo[3,4-b]pyridine-4-carboxamide]
14 | 204 | Cc1cc(C)c(CNC(=O)c2cc(-c3ccc(N)cc3)nc3c2cnn3C(C)C)c(=O)[nH]1 [Ex 43, 6-(4-Aminophenyl)-N-[(4,6-dimethyl-2-oxo-1,2-dihydro-3-pyridinyl)methyl]-1-(1-methylethyl)-1H-pyrazolo[3,4-b]pyridine-4-carboxamide]
15 | 153 | Cc1cc(C)c(CNC(=O)c2cc(-c3cccnc3)nc3c2c(C)nn3C(C)(C)C)c(=O)[nH]1 [Ex 122, 1-(1,1-Dimethylethyl)-N-[(4,6-dimethyl-2-oxo-1,2-dihydro-3-pyridinyl)methyl]-3-methyl-6-(3-pyridinyl)-1H-pyrazolo[3,4-b]pyridine-4-carboxamide]
16 | 99 | Cc1cc(C)c(CNC(=O)c2cc(Nc3ccncc3)nc3c2cnn3C(C)C)c(=O)[nH]1 [Ex 84, N-[(4,6-Dimethyl-2-oxo-1,2-dihydro-3-pyridinyl)methyl]-1-(1-methylethyl)-6-(4-pyridinylamino)-1H-pyrazolo[3,4-b]pyridine-4-carboxamide]
17 | 55 | CCCc1cc(C)[nH]c(=O)c1CNC(=O)c1cc(C2CC2)nc2c1cnn2C(C)C [Ex 13, 6-Cyclopropyl-1-(1-methylethyl)-N-[(6-methyl-2-oxo-4-propyl-1,2-dihydro-3-pyridinyl)methyl]-1H-pyrazolo[3,4-b]pyridine-4-carboxamide]
18 | 673 | Cc1cc(C)c(CNC(=O)c2cc(NCc3ccccc3)nc3c2cnn3C(C)C)c(=O)[nH]1 [Ex 35, N-[(4,6-Dimethyl-2-oxo-1,2-dihydro-3-pyridinyl)methyl]-1-(1-methylethyl)-6-[(phenylmethyl)amino]-1H-pyrazolo[3,4-b]pyridine-4-carboxamide]
19 | 489 | Cc1cc(C)c(CNC(=O)c2cc(NCCNc3ccccn3)nc3c2cnn3C(C)C)c(=O)[nH]1 [Ex 95, N-[(4,6-Dimethyl-2-oxo-1,2-dihydro-3-pyridinyl)methyl]-1-(1-methylethyl)-6-{[2-(2-pyridinylamino)ethyl]amino}-1H-pyrazolo[3,4-b]pyridine-4-carboxamide]
20 | 373 | Cc1cc(C)c(CNC(=O)c2cc(C3CC3)nc3c2c(C)nn3C(C)C)c(=O)[nH]1 [Ex 103, 6-Cyclopropyl-N-[(4,6-dimethyl-2-oxo-1,2-dihydro-3-pyridinyl)methyl]-3-methyl-1-(1-methylethyl)-1H-pyrazolo[3,4-b]pyridine-4-carboxamide]
21 | 52 | Cc1cc(C)c(CNC(=O)c2cc(-c3ccc4[nH]c(=O)[nH]c4c3)nc3c2c(C)nn3C(C)(C)C)c(=O)[nH]1 [Ex 88, 1-(1,1-Dimethylethyl)-N-[(4,6-dimethyl-2-oxo-1,2-dihydro-3-pyridinyl)methyl]-3-methyl-6-(2-oxo-2,3-dihydro-1H-benzimidazol-5-yl)-1H-pyrazolo[3,4-b]pyridine-4-carboxamide]
22 | 514 | Cc1cc(C)c(CNC(=O)c2cc(NC3CCOCC3)nc3c2cnn3C(C)C)c(=O)[nH]1 [Ex 54, N-[(4,6-Dimethyl-2-oxo-1,2-dihydro-3-pyridinyl)methyl]-1-(1-methylethyl)-6-(tetrahydro-2H-pyran-4-ylamino)-1H-pyrazolo[3,4-b]pyridine-4-carboxamide]
23 | 103 | Cc1cc(C)c(CNC(=O)c2cc(-c3ccc(C(N)=O)cc3)nc3c2cnn3C(C)C)c(=O)[nH]1 [Ex 94, 6-[4-(Aminocarbonyl)phenyl]-N-[(4,6-dimethyl-2-oxo-1,2-dihydro-3-pyridinyl)methyl]-1-(1-methylethyl)-1H-pyrazolo[3,4-b]pyridine-4-carboxamide]
24 | 5750 | Cc1cc(C(=O)NCc2c(C)cc(C)[nH]c2=O)c2cnn(Cc3ccccc3)c2n1 [Ex 100, N-[(4,6-Dimethyl-2-oxo-1,2-dihydro-3-pyridinyl)methyl]-6-methyl-1-(phenylmethyl)-1H-pyrazolo[3,4-b]pyridine-4-carboxamide]
25 | 248 | Cc1cc(C)c(CNC(=O)c2cc(-c3cccc(N)c3)nc3c2cnn3C(C)C)c(=O)[nH]1 [Ex 45, 6-(3-aminophenyl)-N-[(4,6-dimethyl-2-oxo-1,2-dihydro-3-pyridinyl)methyl]-1-(1-methylethyl)-1H-pyrazolo[3,4-b]pyridine-4-carboxamide]
26 | 784 | Cc1cc(C)c(CNC(=O)c2cc(NCCO)nc3c2cnn3C(C)C)c(=O)[nH]1 [Ex 57, N-[(4,6-Dimethyl-2-oxo-1,2-dihydro-3-pyridinyl)methyl]-6-[(2-hydroxyethyl)amino]-1-(1-methylethyl)-1H-pyrazolo[3,4-b]pyridine-4-carboxamide]
27 | 105 | Cc1cc(C2CCCCC2)c(CNC(=O)c2cc(C3CC3)nc3c2cnn3C(C)C)c(=O)[nH]1 [Ex 16, N-[(4-Cyclohexyl-6-methyl-2-oxo-1,2-dihydro-3-pyridinyl)methyl]-6-cyclopropyl-1-(1-methylethyl)-1H-pyrazolo[3,4-b]pyridine-4-carboxamide]
28 | 1040 | CCNc1cc(C(=O)NCc2c(C)cc(C)[nH]c2=O)c2cnn(C(C)C)c2n1 [Ex 21, N-[(4,6-Dimethyl-2-oxo-1,2-dihydro-3-pyridinyl)methyl]-6-(ethylamino)-1-(1-methylethyl)-1H-pyrazolo[3,4-b]pyridine-4-carboxamide]
29 | 1360 | Cc1cc(C)c(CNC(=O)c2ccnc3c2cnn3C(C)C)c(=O)[nH]1 [Ex 22, N-[(4,6-Dimethyl-2-oxo-1,2-dihydro-3-pyridinyl)methyl]-1-(1-methylethyl)-1H-pyrazolo[3,4-b]pyridine-4-carboxamide]
30 | 2110 | Cc1cc(C)c(CNC(=O)c2cc(NCCN(C)C)nc3c2cnn3C(C)C)c(=O)[nH]1 [Ex 56, 6-{[2-(Dimethylamino)ethyl]amino}-N-[(4,6-dimethyl-2-oxo-1,2-dihydro-3-pyridinyl)methyl]-1-(1-methylethyl)-1H-pyrazolo[3,4-b]pyridine-4-carboxamide]
